Test system: CREB
Assay: CREB levels in severed axons by immunofluorescence
Assay type: cell-based, rat
Details: for NGF-dependent restoration of CREB immunofluorescence: 1 μM cycloheximide or 40 μM anisomycin, concurrent with NGF replacement
Protocol: FIGS. 7A-B are results showing the axonal translation and retrograde transport of endogenous CREB. (A) CREB levels in severed axons of E15 DRGs were assayed by immunofluorescence with a CREB-specific antibody. CREB was depleted on removal of NGF, with near complete loss of fluorescence signals by 3 hours. […] The error bars represent s.e.m. (n=40). (B) CREB is depleted from axon terminals in a microtubule-dependent manner. CREB levels in severed axons were monitored, as in A, after removal and restoration of NGF, in the presence of LLnL or colchicine. Colchicine, but not LLnL, blocked the reduction in CREB levels following removal of NGF. The error bars represent s.e.m. (n=40).
E15 rat or E13 mouse embryonic dorsal root ganglion (DRG) explants were plated on glass-bottom culture dishes (MatTek) or glass coverslips pre-coated with 33 μg/ml poly-D-lysine and 1 μg/ml laminin. CREB^α/Δ−/+ animals used to generate CREB^α/Δ−/− embryos were from Jackson Labs. E15 dissociated DRG neurons were prepared as described by Wu et al., Nature 436, 1020-1024 (2005). DRGs were cultured in B27/Neurobasal medium (Invitrogen) supplemented with 100 ng/ml nerve growth factor (NGF) and […] 5′-fluorodeoxyuridine (5-FdU) for 3 days. siRNA-mediated knockdown in DRG neurons has been described previously by Higuchi et al., Biochemical & Biophysical Research Communications 301, 804-809 (2003) and was performed using siRNAs listed in Table S3. For measurements of CREB levels in isolated axons, axons were severed from cell bodies by removing the explant with a flame-sharpened Pasteur pipette (Wu et al., Nature 436, 1020-1024 (2005)). Modified Boyden chambers were based on the procedure of Twiss (Zheng et al., Journal of Neuroscience 21, 9291-9303 (2001)) and modified to obtain distal axons as described by Wu et al., Nature 436, 1020-1024 (2005). mRNA from harvested axons (Wu et al., Nature 436, 1020-1024 (2005)) was used to prepare a cDNA library using a modified, unbiased single cell protocol as described below. See also Tietjen et al., Neuron 38, 161-175 (2003). Compartmented (Campenot) cultures were prepared as described below. See also Campenot, Proc Natl Acad Sci USA 74, 4516-4519 (1977)).
Images and measurements of signals in axons were taken from the terminal 50 μm of the axon, except where indicated. Analyzed axons were a minimum of 2000 μm for all experiments. DRGs were fixed with 4% PFA in CBS overnight at 4° C., permeabilized with 0.5% Triton X-100/TBS, and blocked in 4% BSA/TBS for 1 hour. DRGs were labeled with antibodies (Table S4) in 2% BSA/0.1% Triton X-100/TBS overnight at 4° C. For image acquisition details, see below.
The axonal localization of CREB was also examined by immunofluorescence. Axons were severed from cultured DRG explants to rule out potential contributions from anterograde transport of cell body-derived CREB. […] Although the majority of CREB protein localized to the nucleus, with substantially lower levels in axons (FIG. 4D), the immunofluorescence signal in axons was specific. Similar immunofluorescence staining was seen using a different CREB-specific antibody that recognized a non-overlapping epitope.
The importin proteins, which bind nuclear-localization sequences (NLS) (Goldfarb et al., Trends in Cell Biology 14, 505-514 (2004)), are present in axons and mediate the retrograde trafficking of axonally-injected fluorescently-labeled NLS peptides (Hanz et al., Neuron 40, 1095-1104 (2003)). Since CREB contains a NLS that mediates its nuclear localization (Waeber & Habener, Mol Endocrinol 5, 1418-1430 (1991)), axonal CREB may be retrogradely transported to the cell body. To determine if endogenously-expressed CREB is retrogradely trafficked, we examined the time course of CREB reduction in axons upon replacement of media with NGF-free media. […]

COc1ccc(C[C@H]2NC[C@H](O)[C@H]2OC(C)=O)cc1 [anisomycin]
NGF-dependent restoration of CREB immunofluorescence: prevented the restoration of CREB immunofluorescence

C[C@@H]1C[C@@H]([C@H](O)CC2CC(=O)NC(=O)C2)C(=O)[C@@H](C)C1 [cycloheximide]
CREB immunoreactivity in severed axons (100 ng/ml NGF + 1 μM cycloheximide, 3 hours): loss of CREB immunoreactivity | NGF-dependent restoration of CREB immunofluorescence: prevented the restoration of CREB immunofluorescence

NGF: nerve growth factor
time for axonal CREB levels to decrease to baseline (after NGF removal): ≤ 3 h | time for CREB levels to return to original levels (following restoration of NGF): 2 h | recovery in CREB levels (within 30 min of NGF restoration): ~40%

— patent US12103952B2, “Methods for expressing proteins in axons” (Cornell University, priority 2010, dated 2024)
